Data taken from patent US12103952B2, “Methods for expressing proteins in axons” (Cornell University, priority 2010, dated 2024).

System: E15 dissociated DRG neurons
Assay: NGF-mediated retrograde survival in compartmented (Campenot) chambers, TUNEL assay
Type: cell-based, rat
Procedure: FIGS. 2A-E are results showing that local protein synthesis in axons is required for NGF-dependent survival. (A) Phospho-4E-BP1 levels increase in growth cones in response to NGF treatment. DRG neurons were incubated with NGF-replete or NGF-free media; phospho-4E-BP1 levels in axons were measured by immunofluorescence. Scale bar, 50 μm. (B) Quantification of total and phospho-4EBP1 in (A) p=0.012. Numbers on bars represent n axons per condition. (C) Schematic diagram of compartmented (Campenot) chambers. E15 dissociated DRG neurons are cultured in the cell body compartment and axons grow under a thinly applied silicone grease layer that seals the chamber with the Permanox® plastic culture slide. (D) Application of protein synthesis inhibitors to axons blocks NGF-mediated retrograde survival. Dissociated DRG neurons were grown in compartmentalized chambers, and vehicle or NGF was added to the axon compartment. 1 μM cycloheximide (CHX) or 40 μM anisomycin (Aniso) were added to the axon compartment concurrently with NGF media. Cell body compartments were kept NGF-free during the course of the experiment. Cells crossing the divider were retrogradely labeled with WGA-Alexa555 and only WGA-positive cell bodies were counted in the data set. Survival was assessed by TUNEL assay. Examples of non-apoptotic and apoptotic are indicated with closed and open arrows, respectively (Blue=DAPI, Green=TUNEL). Scale bar, 20 μm. (E) Quantification of results from (D). *p<0.001. Numbers on bars represent n cells per condition.
Campenot chambers were modified for FISH and Immunofluorescence analysis as follows: Teflon dividers were applied to poly-D-lysine, laminin and collagen (1 mg/ml)-coated Lab-Tek chambers (NUNC). The low autofluorescence of the Permanox® plastic in these chambers allows us to perform fluorescence analyses on these cultures much more readily than is possible using traditional cell culture plasticware. E15 dissociated DRG neurons were plated in the cell body compartment in media containing 100 ng/ml NGF and 20 μM 5′-fluorodeoxyuridine to inhibit glial growth. Media was changed every 2 DIV and NGF concentration in the cell body compartment was halved at each media change. At DIV 5, when axons had crossed the divide into the axonal compartment, NGF was withdrawn from the cell body compartment and experimental media containing NGF (0 ng/ml or 30 ng/ml) and/or drug treatments/siRNA transfection reagents was applied to the axon compartment for a further 2 DIV. All media were completely replaced every subsequent 12 hours to ensure purity of the conditions in the respective compartments. […]

[1] = axonal application together with NGF, 1 μM cycloheximide or 40 μM anisomycin, compared to NGF alone

| Compound | neuronal survival [1] | DRG survival (5 DIV compartmented cultures, NGF applied to either axons or cell bodies individually) | neuronal survival (NGF applied exclusively to the axonal compartment, cell body compartment NGF-free, 48 hour, compared to vehicle-treated axons) |
| --- | --- | --- | --- |
| COc1ccc(C[C@H]2NC[C@H](O)[C@H]2OC(C)=O)cc1 [anisomycin] | significant reduction in survival | – | – |
| C[C@@H]1C[C@@H]([C@H](O)CC2CC(=O)NC(=O)C2)C(=O)[C@@H](C)C1 [cycloheximide] | significant reduction in survival | – | – |
| NGF: nerve growth factor | – | capable of supporting DRG survival | significant increase in neuronal survival |
